{"source": "patent US7754868B2", "about": "“Nucleic acid encoding two-component sensing and regulatory proteins, antimicrobial proteins and uses therefor” (North Carolina State University, priority 2004, dated 2010)", "key": {"[1]": {"test_system": "L. acidophilus NCFM LBA1430 HPK mutant", "assay": "Growth curves with 0.3% of individual bile salts", "assay_type": "cell-based, Lactobacillus acidophilus", "details": "0.3% bile salt", "method": "Growth curve experiments were also performed using 0.3% of individual bile salts: taurocholic acid, taurodeoxycholic acid, taurochenodeoxycholic acid, glycocholic acid, glycodeoxycholic acid."}, "[2]": {"test_system": "L. acidophilus HPK mutant (NCK1686)", "details": "log-phase cells", "method": "(§1) Log phase cells at an A600 of 0.25-0.3 (pH>5.8) from a 2% inoculum in MRS broth were centrifuged and resuspended in the same volume of NMS, or MRS containing 15 or 20% (v/v) ethanol. CFU/ml were determined at 30 minutes intervals by serial dilutions in 10% MRS and enumeration on MRS agar as described above."}, "[3]": {"test_system": "L. acidophilus control NCK1398 (NCFM::lacL)", "details": "20% ethanol, after 90 min, log-phase cells", "method": "as §1"}}, "note": "“Also recorded” adds a separate entry of the source."}
{"smiles": "C[C@H](CCC(=O)NCCS(=O)(=O)O)[C@H]1CC[C@H]2[C@@H]3CC[C@@H]4C[C@H](O)CC[C@]4(C)[C@H]3C[C@H](O)[C@]12C", "note": "[Sodium taurodeoxycholate]", "values": [{"measurement": "effect on growth of the HPK mutant compared to wild type", "setting": "[1]", "result": "the only salt that affected the growth of the HPK mutant; also recorded: more inhibitory effect on the growth of the HPK mutant than other salts tested"}]}
{"smiles": "CCO", "note": "[ethanol]", "values": [{"measurement": "survival, HPK mutant versus control", "setting": "[2]; 15% (v/v) ethanol", "result": "No differences were observed"}, {"measurement": "reduction in survival", "setting": "[2]; 20% ethanol, after 90 min", "result": 4, "unit": "log"}, {"measurement": "reduction in survival", "setting": "[3]", "result": 1, "unit": "log"}]}
